# Measurements from patent US20250051347A1, “BIFUNCTIONAL CHIMERIC HETEROCYCLIC COMPOUND AND USE THEREOF AS ANDROGEN RECEPTOR DEGRADER” (Hinova Pharmaceuticals, Inc., priority 2021, published 2025).
# Molecular target: T1, androgen receptor (AR) splicing variant AR-v7 (Homo sapiens, UniProt P10275)
# T1 construct: The degradation activity of compounds on AR-v7 in 22RV1 cells; host or cells: 22RV1 cells
# T1 sequence (P10275 1-644 isoform P10275-3): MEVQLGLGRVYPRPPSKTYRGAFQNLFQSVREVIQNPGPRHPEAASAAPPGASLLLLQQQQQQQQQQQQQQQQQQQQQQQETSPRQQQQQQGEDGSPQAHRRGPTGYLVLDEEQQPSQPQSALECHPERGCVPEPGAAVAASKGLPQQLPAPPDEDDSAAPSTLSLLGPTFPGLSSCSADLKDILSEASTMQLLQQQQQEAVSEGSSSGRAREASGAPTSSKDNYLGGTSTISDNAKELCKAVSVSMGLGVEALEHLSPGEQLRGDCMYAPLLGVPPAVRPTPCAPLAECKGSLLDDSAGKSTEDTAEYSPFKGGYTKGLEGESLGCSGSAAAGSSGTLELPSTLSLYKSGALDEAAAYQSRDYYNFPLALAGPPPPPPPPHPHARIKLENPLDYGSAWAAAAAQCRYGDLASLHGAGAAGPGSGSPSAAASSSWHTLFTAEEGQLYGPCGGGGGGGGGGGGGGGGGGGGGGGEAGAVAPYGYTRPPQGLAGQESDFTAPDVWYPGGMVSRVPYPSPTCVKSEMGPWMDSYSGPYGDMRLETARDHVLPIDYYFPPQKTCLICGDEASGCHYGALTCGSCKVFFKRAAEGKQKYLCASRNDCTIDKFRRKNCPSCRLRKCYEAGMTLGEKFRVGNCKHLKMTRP
# Assay: Degradation activity on androgen receptor splicing variant AR-v7 in 22RV1 cells (ELISA)
# Assay type: cell-based
# Conditions: AR-v7 degradation in 22RV1 cells, 48 h, class symbols
# Experimental: The degradation activity of the compound of the present invention on the androgen receptor splicing variant AR-V7 was analyzed using enzyme-linked immunosorbent assay (ELISA).
# The plate was cultured in a 5% CO2 cell incubator at 37° C. for 2 days until the cells adhered to the wall. • 2) The drug was prepared into 10 mM stock solution with dimethylsulfoxide (DMSO). […] The plate was gently shaken and mixed. In addition, negative control wells (only containing culture medium) and positive control wells (only containing cells and DMSO) were set. • 3) After the cells were cultured in an incubator for 48 h, the medium was removed and the cells were rinsed once with ice cold PBS. Then, ice-cold 1× cell lysis buffer was added to each well of the cell culture plate. After the plate was incubated on ice for 15 min, the plate was tapped to mix. • 4) The supernatant of the cell lysate was transferred from the cell culture plate to a […] plate for ELISA. • 5) The newly prepared Capture antibody (green) was mixed with the newly prepared HRP-labeled antibody (red), and then the antibody mixture was added to the above 96-well ELISA plate. • 6) The ELISA plate was sealed with plastic film, and then incubated in a 25° C. incubator for 1 h. • 7) The washing buffer was added to each well, and then TMB substrate was added to each well of the ELISA plate. Subsequently, the plate was cultured in an incubator at 37° C. for 5 min. • 8) 100 μl of stop solution was added to each well of the ELISA plate, and the plate was gently tapped for several seconds. The absorbance was read at 450 nm within 30 min. The data were analyzed by the Dose-response equation in the software GraphPad Prism8, to obtain DC50 and Dmax values.
row,DC50,SMILES
1,101 to 1000 nM,CC(C)(c1ccc(OCCCCCCCCOCCCCNc2ccc3c(c2)C(=O)N(C2CCC(=O)NC2=O)C3=O)cc1)c1ccc(OCc2ccnc(NS(=O)(=O)C3CC3)n2)cc1 (stereo not drawn) [Example 50]
2,101 to 1000 nM,CC(C)(c1ccc(OCCCCCCCCOCCCCNc2ccc3c(c2)C(=O)N(C2CCC(=O)NC2=O)C3=O)cc1)c1ccc(OCc2cnc(NS(C)(=O)=O)nc2)cc1 (stereo not drawn) [Example 51]
3,1000 to 5000 nM,"CC(C)(c1ccc(OCCNc2cccc3c2C(=O)N(C2CCC(=O)NC2=O)C3=O)cc1)c1ccc(OCc2ccnc(NS(C)(=O)=O)n2)cc1 (stereo not drawn) [Example 53, N-(4-((4-(2-(4-(2-((2-(2,6-dioxopiperidin-3-yl)-1,3-dioxoisoindolin-4-yl)amino)ethoxy)phenyl)isopropan-2-yl)phenoxy)methyl)pyrimidin-2-yl)methanesulfonamide]"

# Further lines, the compound ahead of its results:
row,SMILES,DC50
1,CCS(=O)(=O)Nc1nccc(COc2ccc(C(C)(C)c3ccc(OCCCCCCCCOCCCCNc4ccc5c(c4)C(=O)N(C4CCC(=O)NC4=O)C5=O)cc3)cc2)n1 (stereo not drawn) [Example 44],101 to 1000 nM
2,"CC(C)(c1ccc(OCc2ccnc(NS(C)(=O)=O)n2)cc1)c1ccc(OC2CN(c3cccc4c3C(=O)N(C3CCC(=O)NC3=O)C4=O)C2)cc1 (stereo not drawn) [Example 47, N-(4-((4-(2-(4-((1-(2-(2,6-dioxopiperidin-3-yl)-1,3-dioxoisoindolin-4-yl)azetidin-3-yl)oxy)phenyl)propan-2-yl)phenoxy)methyl)pyrimidin-2-yl)methanesulfonamide]",101 to 1000 nM
3,"CC(C)(c1ccc(OCc2ccnc(NS(C)(=O)=O)n2)cc1)c1ccc(OCC2CN(c3cccc4c3C(=O)N(C3CCC(=O)NC3=O)C4=O)C2)cc1 (stereo not drawn) [Example 49, N-(4-((4-(2-(4-((1-(2-(2,6-dioxopiperidin-3-yl)-1,3-dioxoisoindolin-4-yl)azetidin-3-yl)methoxy)phenyl)propan-2-yl)phenoxy)methyl)pyrimidin-2-yl)methanesulfonamide]",1000 to 5000 nM

# Same assay, conditions: AR-v7 degradation in 22RV1 cells, 48 h, numeric values
row,DC50,SMILES
1,> 10000 nM,CC(C)(c1ccc(OCc2ccnc(NS(C)(=O)=O)n2)cc1)c1ccc(OCC2CCN(CCCOCCCNc3ccc4c(c3)C(=O)N(C3CCC(=O)NC3=O)C4=O)CC2)cc1 (stereo not drawn) [Example 40]
2,> 10000 nM,CC(C)(c1ccc(OCc2ccnc(NS(C)(=O)=O)n2)cc1)c1ccc(OC[C@H]2CC[C@H](CN3CCC(CN4CCN(c5ccc6c(c5)C(=O)N(C5CCC(=O)NC5=O)C6=O)CC4)CC3)CC2)cc1 (stereo partly drawn) [Example 43]
3,8760 nM,CC(C)(c1ccc(OCc2ccnc(NS(C)(=O)=O)n2)cc1)c1ccc(OCC2CCN(C[C@H]3CC[C@H](CN4CCN(c5ccc6c(c5)C(=O)N(C5CCC(=O)NC5=O)C6=O)CC4)CC3)CC2)cc1 (stereo partly drawn) [Example 45]
4,> 5000 nM,"CC(C)(c1ccc(OCc2ccnc(NS(C)(=O)=O)n2)cc1)c1ccc(OC2CN(c3ccc4c(c3)C(=O)N(C3CCC(=O)NC3=O)C4=O)C2)cc1 (stereo not drawn) [Example 46, N-(4-((4-(2-(4-((1-(2-(2,6-dioxopiperidin-3-yl)-1,3-dioxoisoindolin-5-yl)azetidin-3-yl)oxy)phenyl)propan-2-yl)phenoxy)methyl)pyrimidin-2-yl)methanesulfonamide]"
5,> 10000 nM,"CC(C)(c1ccc(OCc2ccnc(NS(C)(=O)=O)n2)cc1)c1ccc(OCC2CN(c3ccc4c(c3)C(=O)N(C3CCC(=O)NC3=O)C4=O)C2)cc1 (stereo not drawn) [Example 48, N-(4-((4-(2-(4-((1-(2-(2,6-dioxopiperidin-3-yl)-1,3-dioxoisoindolin-5-yl)azetidin-3-yl)methoxy)phenyl)propan-2-yl)phenoxy)methyl)pyrimidin-2-yl)methanesulfonamide]"
6,> 10000 nM,"CC(C)(c1ccc(OCCCCCOCCCOCC2CCN(c3ccc4c(c3)C(=O)N(C3CCC(=O)NC3=O)C4=O)C2)cc1)c1ccc(OCc2ccnc(NS(C)(=O)=O)n2)cc1 (stereo not drawn) [Example 52, N-(4-((4-(2-(4-((5-(3-((1-(2-(2,6-dioxopiperidin-3-yl)-1,3-dioxoisoindolin-5-yl)pyrrolidin-3-yl)methoxy)propoxy)pentyl)oxy)phenyl)propan-2-yl)phenoxy)methyl)pyrimidin-2-yl)methanesulfonamide]"
